# Results taken from ChEMBL document CHEMBL1201862, “PubChem BioAssay data set” (2004).
# Calls of active or inactive are those of the source.
# How the values were obtained:
# [1] = target: T1, Low molecular weight phosphotyrosine protein phosphatase (Homo sapiens, UniProt P24666); type: functional; conditions: read-out: IC50_Mean;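 further: Dose-response confirmation assay measuring inhibition of LMPTP enzyme activity by fluorescence intensity read-out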
# T1 sequence (P24666 whole entry): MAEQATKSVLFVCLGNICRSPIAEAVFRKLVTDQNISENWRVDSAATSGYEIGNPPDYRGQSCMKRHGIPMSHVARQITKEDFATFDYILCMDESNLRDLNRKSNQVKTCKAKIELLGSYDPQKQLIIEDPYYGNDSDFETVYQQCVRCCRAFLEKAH
# [2] = viability loss in HepG2 liver cells – cell-based, ATP luminescence, cherry-pick, set 6, cytotoxicity control, dose response (AID 1053125); type: functional
# [3] = target: Ras and Rab interactor 1/Tyrosine-protein kinase ABL1 (Homo sapiens, UniProt P00519+Q13671); type: functional;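 further: biochemical TR-FRET dose-response test measuring inhibition of binding between Rin1 and Abl proteins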
# Ras and Rab interactor 1/Tyrosine-protein kinase ABL1, sequence (P00519 whole entry): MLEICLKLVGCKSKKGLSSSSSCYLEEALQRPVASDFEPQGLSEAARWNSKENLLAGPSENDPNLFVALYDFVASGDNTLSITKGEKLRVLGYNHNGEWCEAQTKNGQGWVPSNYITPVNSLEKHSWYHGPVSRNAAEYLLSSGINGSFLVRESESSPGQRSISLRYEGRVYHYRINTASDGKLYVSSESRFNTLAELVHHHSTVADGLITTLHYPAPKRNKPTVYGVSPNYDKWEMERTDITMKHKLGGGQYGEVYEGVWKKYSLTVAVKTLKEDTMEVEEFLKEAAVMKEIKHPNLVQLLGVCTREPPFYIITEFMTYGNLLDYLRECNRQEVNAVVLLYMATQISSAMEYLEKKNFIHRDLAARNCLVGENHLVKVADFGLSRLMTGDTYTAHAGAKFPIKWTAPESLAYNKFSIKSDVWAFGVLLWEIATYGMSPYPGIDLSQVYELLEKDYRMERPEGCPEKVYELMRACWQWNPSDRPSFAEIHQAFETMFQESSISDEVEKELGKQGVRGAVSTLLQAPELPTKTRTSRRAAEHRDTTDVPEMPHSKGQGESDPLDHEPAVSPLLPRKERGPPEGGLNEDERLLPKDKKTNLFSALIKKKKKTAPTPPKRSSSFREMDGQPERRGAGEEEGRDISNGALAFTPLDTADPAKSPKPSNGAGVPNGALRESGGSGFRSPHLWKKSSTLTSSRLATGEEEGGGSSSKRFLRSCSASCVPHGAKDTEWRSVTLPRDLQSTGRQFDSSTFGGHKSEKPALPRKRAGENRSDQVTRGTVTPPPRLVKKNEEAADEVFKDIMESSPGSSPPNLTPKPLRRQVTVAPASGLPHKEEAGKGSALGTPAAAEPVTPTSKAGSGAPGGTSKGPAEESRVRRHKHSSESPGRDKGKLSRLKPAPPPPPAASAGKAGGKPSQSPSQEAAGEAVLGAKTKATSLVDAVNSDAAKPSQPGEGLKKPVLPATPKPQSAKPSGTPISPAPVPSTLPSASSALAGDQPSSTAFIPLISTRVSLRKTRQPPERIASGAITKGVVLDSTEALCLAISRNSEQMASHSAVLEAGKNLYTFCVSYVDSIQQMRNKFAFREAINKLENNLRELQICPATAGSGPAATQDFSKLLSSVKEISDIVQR
# Ras and Rab interactor 1/Tyrosine-protein kinase ABL1, sequence (Q13671 whole entry): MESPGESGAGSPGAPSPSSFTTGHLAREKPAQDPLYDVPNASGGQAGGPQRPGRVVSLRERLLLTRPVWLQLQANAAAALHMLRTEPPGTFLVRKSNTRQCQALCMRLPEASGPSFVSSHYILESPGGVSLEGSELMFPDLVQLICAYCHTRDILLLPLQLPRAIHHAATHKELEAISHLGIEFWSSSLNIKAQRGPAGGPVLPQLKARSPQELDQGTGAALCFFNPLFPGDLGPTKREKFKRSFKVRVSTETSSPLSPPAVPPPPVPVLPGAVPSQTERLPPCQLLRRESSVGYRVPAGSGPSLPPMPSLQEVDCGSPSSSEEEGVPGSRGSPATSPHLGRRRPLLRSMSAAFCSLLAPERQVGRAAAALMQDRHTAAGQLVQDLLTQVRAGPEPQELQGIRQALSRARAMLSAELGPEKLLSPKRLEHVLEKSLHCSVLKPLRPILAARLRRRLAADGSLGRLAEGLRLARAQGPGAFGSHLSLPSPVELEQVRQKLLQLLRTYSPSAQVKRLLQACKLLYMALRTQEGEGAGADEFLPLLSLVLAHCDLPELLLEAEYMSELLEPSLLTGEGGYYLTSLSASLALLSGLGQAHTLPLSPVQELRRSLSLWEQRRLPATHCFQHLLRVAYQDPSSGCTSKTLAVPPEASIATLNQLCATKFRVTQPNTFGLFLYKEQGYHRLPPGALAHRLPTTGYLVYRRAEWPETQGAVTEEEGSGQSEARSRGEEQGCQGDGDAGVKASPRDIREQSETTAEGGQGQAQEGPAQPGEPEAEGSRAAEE
# [4] = target: T2, Sentrin-specific protease 8 (Homo sapiens, UniProt Q96LD8); experiment: inhibition of human SENP8 cleavage activity – biochemical, luminescence, SAR follow-up (AID 504501); type: functional
# T2 sequence (Q96LD8 whole entry): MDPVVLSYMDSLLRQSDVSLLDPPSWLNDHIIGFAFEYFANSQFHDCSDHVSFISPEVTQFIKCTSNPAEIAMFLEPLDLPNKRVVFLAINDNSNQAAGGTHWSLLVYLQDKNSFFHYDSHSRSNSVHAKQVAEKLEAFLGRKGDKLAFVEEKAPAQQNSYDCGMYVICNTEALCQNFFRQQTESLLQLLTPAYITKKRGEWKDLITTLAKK
# Caspase-3 = target: T3, Caspase-3 (Homo sapiens, UniProt P42574); experiment: SAR Analysis of small molecule inhibitors of Sentrin-specific proteases (SENPs) using a Caspase-3 Selectivity assay. [Related pubchem assays (depositor defined):AID2540, AID2599, AID434973, AID489001]; type: functional
# T3 sequence (P42574 whole entry): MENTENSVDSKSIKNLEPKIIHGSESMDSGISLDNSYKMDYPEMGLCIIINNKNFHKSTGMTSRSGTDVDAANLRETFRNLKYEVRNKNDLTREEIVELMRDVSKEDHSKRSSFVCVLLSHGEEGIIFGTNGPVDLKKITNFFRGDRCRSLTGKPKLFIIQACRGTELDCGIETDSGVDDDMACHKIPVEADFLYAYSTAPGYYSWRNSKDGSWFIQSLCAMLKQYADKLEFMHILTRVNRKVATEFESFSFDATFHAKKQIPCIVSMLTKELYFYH
# [5] = target: T4, Sentrin-specific protease 6 (Homo sapiens, UniProt Q9GZR1); experiment: SAR Analysis of small molecule inhibitors of Sentrin-specific protease 6 (SENP6) using a Luminescent assay. [Related pubchem assays (depositor defined):AID2582, AID2599]; type: functional
# T4 sequence (Q9GZR1 whole entry): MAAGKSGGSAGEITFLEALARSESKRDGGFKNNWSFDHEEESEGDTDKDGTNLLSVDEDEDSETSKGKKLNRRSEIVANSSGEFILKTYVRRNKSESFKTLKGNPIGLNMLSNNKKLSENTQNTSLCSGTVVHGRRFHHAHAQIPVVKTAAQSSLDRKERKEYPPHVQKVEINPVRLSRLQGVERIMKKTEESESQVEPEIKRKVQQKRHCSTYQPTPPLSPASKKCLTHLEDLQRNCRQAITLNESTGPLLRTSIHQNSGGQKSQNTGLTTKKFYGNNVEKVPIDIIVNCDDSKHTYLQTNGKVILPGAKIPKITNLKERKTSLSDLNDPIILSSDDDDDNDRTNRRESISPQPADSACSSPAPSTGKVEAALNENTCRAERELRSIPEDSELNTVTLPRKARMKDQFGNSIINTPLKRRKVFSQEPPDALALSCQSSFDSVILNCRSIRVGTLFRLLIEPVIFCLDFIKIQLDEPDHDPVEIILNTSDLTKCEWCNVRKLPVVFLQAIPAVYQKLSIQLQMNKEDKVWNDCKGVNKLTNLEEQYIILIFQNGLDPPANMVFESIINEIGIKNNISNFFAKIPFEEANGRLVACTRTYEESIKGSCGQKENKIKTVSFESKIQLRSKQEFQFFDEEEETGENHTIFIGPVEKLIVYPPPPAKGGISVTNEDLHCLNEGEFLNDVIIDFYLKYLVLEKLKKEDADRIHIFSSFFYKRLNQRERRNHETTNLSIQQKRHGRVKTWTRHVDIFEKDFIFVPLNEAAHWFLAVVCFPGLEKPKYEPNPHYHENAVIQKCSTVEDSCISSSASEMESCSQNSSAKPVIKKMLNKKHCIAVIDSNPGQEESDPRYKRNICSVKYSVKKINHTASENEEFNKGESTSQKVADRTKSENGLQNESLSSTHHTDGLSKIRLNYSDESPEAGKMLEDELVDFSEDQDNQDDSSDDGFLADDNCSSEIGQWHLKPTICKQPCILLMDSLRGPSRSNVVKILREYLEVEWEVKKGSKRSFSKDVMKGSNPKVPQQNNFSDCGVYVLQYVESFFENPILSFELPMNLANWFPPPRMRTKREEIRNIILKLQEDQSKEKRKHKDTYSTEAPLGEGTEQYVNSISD
# [6] = target: T5, Sentrin-specific protease 7 (Homo sapiens, UniProt Q9BQF6); experiment: inhibition of human SENP7 cleavage activity – biochemical, luminescence, SAR follow-up (AID 504497); type: functional
# T5 sequence (Q9BQF6 whole entry): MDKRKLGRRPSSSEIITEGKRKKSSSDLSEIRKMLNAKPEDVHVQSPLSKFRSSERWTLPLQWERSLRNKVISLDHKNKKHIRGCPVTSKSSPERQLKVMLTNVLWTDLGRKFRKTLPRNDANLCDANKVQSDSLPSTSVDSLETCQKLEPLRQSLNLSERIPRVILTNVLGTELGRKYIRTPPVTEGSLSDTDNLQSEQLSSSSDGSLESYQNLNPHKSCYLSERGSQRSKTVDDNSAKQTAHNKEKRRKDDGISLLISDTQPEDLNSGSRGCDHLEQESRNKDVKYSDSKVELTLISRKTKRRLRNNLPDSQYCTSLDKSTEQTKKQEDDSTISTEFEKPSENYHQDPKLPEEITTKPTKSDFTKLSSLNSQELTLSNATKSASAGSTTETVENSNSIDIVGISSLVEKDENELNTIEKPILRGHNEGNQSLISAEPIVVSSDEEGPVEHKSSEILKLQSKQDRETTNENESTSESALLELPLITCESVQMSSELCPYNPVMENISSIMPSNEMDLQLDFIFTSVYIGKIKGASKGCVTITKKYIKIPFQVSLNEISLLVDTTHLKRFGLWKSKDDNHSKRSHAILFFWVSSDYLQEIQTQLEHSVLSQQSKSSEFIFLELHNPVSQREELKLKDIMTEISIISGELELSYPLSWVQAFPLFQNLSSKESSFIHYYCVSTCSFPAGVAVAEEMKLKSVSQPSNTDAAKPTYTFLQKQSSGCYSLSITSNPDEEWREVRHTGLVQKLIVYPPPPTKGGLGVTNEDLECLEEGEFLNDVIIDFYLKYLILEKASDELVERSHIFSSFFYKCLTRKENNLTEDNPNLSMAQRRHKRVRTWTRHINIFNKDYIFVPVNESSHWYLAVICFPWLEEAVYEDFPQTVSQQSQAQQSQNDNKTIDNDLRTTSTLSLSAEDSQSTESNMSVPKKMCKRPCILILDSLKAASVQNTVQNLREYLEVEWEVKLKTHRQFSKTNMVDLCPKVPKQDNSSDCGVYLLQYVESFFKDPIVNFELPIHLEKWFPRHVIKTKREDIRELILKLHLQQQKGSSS
# [7] = target: T6, Apoptotic protease-activating factor 1 (Homo sapiens, UniProt O14727); type: functional
# T6 sequence (O14727 whole entry): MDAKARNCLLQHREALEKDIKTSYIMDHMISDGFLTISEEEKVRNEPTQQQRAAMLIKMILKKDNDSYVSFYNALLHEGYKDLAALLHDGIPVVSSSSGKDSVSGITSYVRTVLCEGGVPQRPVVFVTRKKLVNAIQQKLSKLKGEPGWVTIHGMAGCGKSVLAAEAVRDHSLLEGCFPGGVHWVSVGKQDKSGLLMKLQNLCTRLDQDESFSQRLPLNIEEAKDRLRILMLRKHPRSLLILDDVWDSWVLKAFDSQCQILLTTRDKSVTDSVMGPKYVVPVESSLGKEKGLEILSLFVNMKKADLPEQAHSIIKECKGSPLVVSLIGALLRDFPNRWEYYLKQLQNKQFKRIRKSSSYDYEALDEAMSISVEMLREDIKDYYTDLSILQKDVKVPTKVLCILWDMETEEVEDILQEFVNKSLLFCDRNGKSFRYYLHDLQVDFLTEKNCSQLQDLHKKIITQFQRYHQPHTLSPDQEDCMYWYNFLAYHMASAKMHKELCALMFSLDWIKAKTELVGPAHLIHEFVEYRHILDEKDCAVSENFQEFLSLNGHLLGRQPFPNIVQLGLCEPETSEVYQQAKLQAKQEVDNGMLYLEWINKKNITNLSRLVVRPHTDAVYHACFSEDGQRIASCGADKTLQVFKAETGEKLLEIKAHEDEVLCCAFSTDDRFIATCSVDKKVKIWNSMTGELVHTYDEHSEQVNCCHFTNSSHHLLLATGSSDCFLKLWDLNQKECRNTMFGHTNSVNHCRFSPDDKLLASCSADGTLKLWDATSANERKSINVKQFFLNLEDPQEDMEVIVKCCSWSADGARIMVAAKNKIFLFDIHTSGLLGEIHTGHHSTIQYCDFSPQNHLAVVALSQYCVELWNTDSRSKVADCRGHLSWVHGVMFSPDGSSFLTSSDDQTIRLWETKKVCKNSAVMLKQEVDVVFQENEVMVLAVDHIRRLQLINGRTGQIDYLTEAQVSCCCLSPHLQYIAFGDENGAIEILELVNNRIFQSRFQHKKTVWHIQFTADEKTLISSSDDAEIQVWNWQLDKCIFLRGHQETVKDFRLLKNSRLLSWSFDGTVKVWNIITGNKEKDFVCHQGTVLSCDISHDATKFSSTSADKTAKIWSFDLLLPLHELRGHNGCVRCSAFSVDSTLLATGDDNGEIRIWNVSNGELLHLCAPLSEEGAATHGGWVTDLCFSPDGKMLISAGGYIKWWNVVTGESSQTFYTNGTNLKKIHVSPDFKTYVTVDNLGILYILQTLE
# [8] = target: T2, Sentrin-specific protease 8; type: functional
# [9] = target: T2, Sentrin-specific protease 8; type: functional; remark: listed apart in the source
# Protein Wnt-3a = Protein Wnt-3a (Mus musculus, UniProt P27467); experiment: antagonism of Wnt3a pathway luciferase reporter – Wnt-LIGHT cells, luminescence, selectivity assay for Gli-SUFU antagonist project, dose response (AID 651570); type: functional; conditions: read-out: IC50_Mean;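 further: Wnt-LIGHT reporter cells stimulated with conditioned medium from Wnt3a-producing cells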
# Protein Wnt-3a, sequence (P27467 whole entry): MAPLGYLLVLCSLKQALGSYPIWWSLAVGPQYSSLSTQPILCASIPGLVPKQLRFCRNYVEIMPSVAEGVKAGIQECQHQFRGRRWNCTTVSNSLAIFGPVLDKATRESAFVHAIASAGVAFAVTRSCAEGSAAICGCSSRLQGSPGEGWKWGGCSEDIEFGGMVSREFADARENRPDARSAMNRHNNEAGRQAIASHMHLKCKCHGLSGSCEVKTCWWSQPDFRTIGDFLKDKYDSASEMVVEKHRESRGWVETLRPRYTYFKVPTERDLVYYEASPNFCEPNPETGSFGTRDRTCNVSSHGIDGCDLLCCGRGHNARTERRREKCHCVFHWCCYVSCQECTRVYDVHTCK
# [10] = tested on: Streptococcus sp. 'group A'; experiment: Streptococcus pyogenes SK(-)GAS viability under kanamycin – luminescence, BacTiterGlo, confirmation, counter-screen for streptokinase expression inhibitor project, dose response (AID 1900); type: functional, organism-based
# Streptococcus = experiment: GAS UMAA2166 growth inhibition – luminescence, BacTiterGlo, counter-screen for streptokinase expression inhibitor project, dose response (AID 1915); type: functional, organism-based;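 further: potency for reduction of bacterial viability or growth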
# [11] = Luminescence Cell-Based Dose Retest to Confirm Inhibitors of Cancer Stem Cells. [Related pubchem assays (depositor defined):AID2717, AID2721]; type: functional; conditions: Homo sapiens
# [12] = target: DNA (cytosine-5)-methyltransferase 1 (Homo sapiens, UniProt P26358); experiment: inhibition of DNA methylation by DNMT1 – biochemical, fluorescent molecular beacon, confirmation (AID 602386); type: functional
# DNA (cytosine-5)-methyltransferase 1, sequence (P26358 whole entry): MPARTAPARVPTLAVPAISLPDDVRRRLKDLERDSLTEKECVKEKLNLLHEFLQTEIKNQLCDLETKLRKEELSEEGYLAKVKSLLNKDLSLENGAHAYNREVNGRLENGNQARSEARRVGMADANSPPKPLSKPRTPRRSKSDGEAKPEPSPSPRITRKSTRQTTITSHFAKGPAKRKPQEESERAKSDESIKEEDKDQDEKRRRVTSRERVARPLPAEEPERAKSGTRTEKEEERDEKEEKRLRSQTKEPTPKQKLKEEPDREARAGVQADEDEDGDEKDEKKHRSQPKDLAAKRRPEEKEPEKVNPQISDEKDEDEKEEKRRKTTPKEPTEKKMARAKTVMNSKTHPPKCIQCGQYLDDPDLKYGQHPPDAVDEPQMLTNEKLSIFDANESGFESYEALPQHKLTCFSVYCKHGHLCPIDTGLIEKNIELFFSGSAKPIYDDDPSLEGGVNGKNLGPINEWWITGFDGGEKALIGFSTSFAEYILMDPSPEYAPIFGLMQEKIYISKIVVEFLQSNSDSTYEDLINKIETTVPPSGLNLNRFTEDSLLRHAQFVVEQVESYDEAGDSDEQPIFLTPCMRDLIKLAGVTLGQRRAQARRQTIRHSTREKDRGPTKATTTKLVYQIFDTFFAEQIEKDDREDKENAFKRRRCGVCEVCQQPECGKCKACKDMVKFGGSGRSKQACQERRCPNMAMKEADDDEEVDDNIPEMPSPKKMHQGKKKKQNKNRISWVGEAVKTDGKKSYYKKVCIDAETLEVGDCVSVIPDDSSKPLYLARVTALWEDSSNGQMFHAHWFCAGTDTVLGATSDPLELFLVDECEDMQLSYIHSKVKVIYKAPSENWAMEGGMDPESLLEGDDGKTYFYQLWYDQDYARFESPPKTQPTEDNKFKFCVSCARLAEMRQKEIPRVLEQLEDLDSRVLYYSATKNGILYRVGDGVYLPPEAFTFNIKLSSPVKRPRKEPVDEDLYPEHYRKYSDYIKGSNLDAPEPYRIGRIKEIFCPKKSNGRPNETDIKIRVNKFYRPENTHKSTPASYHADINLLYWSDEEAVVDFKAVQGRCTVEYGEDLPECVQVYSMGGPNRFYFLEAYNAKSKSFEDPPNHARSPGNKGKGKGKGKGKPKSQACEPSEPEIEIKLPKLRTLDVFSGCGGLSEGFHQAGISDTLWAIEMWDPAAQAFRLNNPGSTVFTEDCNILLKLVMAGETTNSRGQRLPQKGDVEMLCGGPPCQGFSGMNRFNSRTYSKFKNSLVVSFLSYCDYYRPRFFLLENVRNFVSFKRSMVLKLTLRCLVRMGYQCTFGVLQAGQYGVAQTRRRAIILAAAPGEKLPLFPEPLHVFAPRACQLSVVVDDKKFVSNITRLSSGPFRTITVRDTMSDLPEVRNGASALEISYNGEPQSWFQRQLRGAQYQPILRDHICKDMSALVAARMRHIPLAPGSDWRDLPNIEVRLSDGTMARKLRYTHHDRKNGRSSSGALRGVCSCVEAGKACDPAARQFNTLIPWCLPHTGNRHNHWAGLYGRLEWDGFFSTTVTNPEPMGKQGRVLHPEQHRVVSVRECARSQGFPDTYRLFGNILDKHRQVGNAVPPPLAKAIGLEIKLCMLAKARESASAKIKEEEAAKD
compound,measurement,setting,value
Cc1ccc2nc3c(cc(C(=O)NCc4ccccc4)c(=N)n3CCCn3ccnc3)c(=O)n2c1,IC50,[1],29.8 µM (inactive)
same,AC50,[2],48 µM (active)
COc1ccccc1CN1C[C@@H]2C[C@@H](c3ccc4nsnc4c3)N3CCC[C@@]23C1=O,IC50,[3],22.3 µM (inactive)
Cc1ccc(N/N=C/c2c[nH]c3ccccc23)cc1,IC50,[4],7.41 µM (active)
same,IC50,Caspase-3,6.02 µM (active)
same,IC50,[5],6.76 µM (active)
same,IC50,[6],3.21 µM (active)
COc1cccc2sc(NC(=O)c3ccc(S(=O)(=O)N(C)C4CCCC4)cc3)nc12,IC50,[4],> 99 µM (inactive)
same,IC50,Caspase-3,> 99 µM (inactive)
same,IC50,[5],> 99 µM (inactive)
same,IC50,[6],> 99 µM (inactive)
CC1=NN(c2ccc(C(F)(F)F)cn2)C(=O)C1,IC50,[7],17.7 µM (active)
same,IC50,[8],10.1 µM (active)
same,IC50,[9],15.6 µM (active)
CCn1c(/C=C/Nc2ccccc2)[n+](CC)c2cc(Cl)ccc21,IC50,Protein Wnt-3a,26.3 µM (inactive)
COC(=O)c1nn(-c2ccccc2)c2c1C(c1ccc(OC)cc1)(C(F)(F)F)N/C(=N\c1ccc(C)cc1)O2 (stereo not given),IC50,[4],> 99 µM (inactive)
same,IC50,Caspase-3,> 99 µM (inactive)
same,IC50,[5],> 99 µM (inactive)
same,IC50,[6],> 99 µM (inactive)
COc1ccc(NC(=S)N2CCC(Cc3ccccc3)CC2)cc1,IC50,Protein Wnt-3a,25.5 µM (inactive)
CC(C)COc1ccc(-c2nn(-c3ccccc3)cc2/C=C2/SC(=S)N(CC(=O)O)C2=O)cc1,EC50,[10],2.85 µM (active)
same,EC50,Streptococcus,4.38 µM (active)
same,AC50,[11],2.87 µM (active)
same,IC50,[12],5.58 µM (active)
CSCCC(c1nnnn1C1CCCCC1)N1CCC(n2c(O)nc3ccccc32)CC1 (stereo not given),IC50,[3],6.82 µM (active)
